Test results taken from patent publication US9029337B2, “Modulation of factor 7 expression” (Isis Pharmaceuticals, Inc., priority 2007, dated 2015).
Strand notation (5' to 3'): a small letter for the sugar, then the base; units joined by * are phosphorothioate-linked, units joined directly phosphodiester-linked; [ ] holds rarer units or linkages, { } end groups; capitals alone tell only the bases. e = 2'-O-(2-methoxyethyl) (MOE); [5mC] = 5-methylcytosine; d = 2'-deoxy (DNA)

Columns and labels:
Assay type in all cases: cell-based
[1] = tested on: human Factor 7 mRNA; test: Dose-dependent antisense inhibition of human Factor 7 in HepB3 cells, electroporation
Description: (§1) The gapmers were also transfected via electroporation and their dose-dependent inhibition of human Factor 7 mRNA was measured. Cells were plated at a density of 20,000 cells per well and transfected via electroporation with 3.125 μM, 6.25 μM, 12.5 μM, 25 μM, 50 μM, and 100 μM concentrations of antisense oligonucleotide, as specified in Table 15. After a treatment period of approximately 16 hours, RNA was isolated from the cells and Factor 7 mRNA levels were measured by quantitative real-time PCR. Human Factor 7 primer probe set RTS 2927 was used to measure mRNA levels. Factor 7 mRNA levels were adjusted according to total RNA content, as measured by RIBOGREEN®. Results are presented as percent inhibition of Factor 7, relative to untreated control cells.
as §1, with “Cells were” for “The gapmers were also transfected via electroporation and their dose-dependent inhibition of human Factor 7 mRNA was measured. Cells were”, “in […]. After a” for “in Table 15. After a”, “cells and human Factor 7” for “cells and Factor 7”

[2] = tested on: human Factor 7 mRNA; test: Antisense inhibition of human Factor 7 mRNA in HepB3 cells, 50 nM antisense oligonucleotide, lipofectin; details: for % Inhibition: Table 13 (microwalk), 50 nM, lipofectin, approximately 24 hours; for % Inhibition of human Factor 7 mRNA levels: gapmers targeted to nucleobases 4868 to 4899 of SEQ ID NO: 1, Table 8
How it was run: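 HepB3 cells were transfected by lipofectin with 50 nM antisense oligonucleotide and harvested after about 24 h. Factor 7 mRNA was measured by real-time RT-PCR (primer probe set RTS 2927 in some runs), normalized to RIBOGREEN total RNA, and reported as percent inhibition versus untreated control.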

[3] = tested on: human Factor 7 mRNA; test: Dose-dependent antisense inhibition of human Factor 7 in HepB3 cells, lipofectin; details: HepB3 cells, approx. 16 hours (Table 14)
How it was run: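 HepB3 cells (4,000/well) lipofectin-transfected with antisense oligonucleotide at 3.125 or 6.25 up to 100 nM for ~16 h. Factor 7 mRNA measured by real-time RT-PCR with primer probe set RTS 2927, adjusted to RIBOGREEN total RNA; expressed as percent inhibition versus untreated control cells.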

[4] = 3.125 μM, approx. 16 hours (Table 15, Example 7)
[5] = 6.25 μM, approx. 16 hours (Table 15, Example 7)
[6] = 12.5 μM, approx. 16 hours (Table 15, Example 7)
[7] = 25 μM, approx. 16 hours (Table 15, Example 7)
[8] = 50 μM, approx. 16 hours (Table 15, Example 7)
[9] = 100 μM, approx. 16 hours (Table 15, Example 7)
[10] = 3.125 μM, approx. 16 hours (Table 16, Example 8 confirmation)
[11] = 6.25 μM, approx. 16 hours (Table 16, Example 8 confirmation)
[12] = 12.5 μM, approx. 16 hours (Table 16, Example 8 confirmation)
[13] = 25 μM, approx. 16 hours (Table 16, Example 8 confirmation)
[14] = 50 μM, approx. 16 hours (Table 16, Example 8 confirmation)
[15] = 100 μM, approx. 16 hours (Table 16, Example 8 confirmation)

Substance	percent inhibition of Factor 7 mRNA, relative to untreated control cells [1, 4]	percent inhibition of Factor 7 mRNA, relative to untreated control cells [1, 5]	percent inhibition of Factor 7 mRNA, relative to untreated control cells [1, 6]	percent inhibition of Factor 7 mRNA, relative to untreated control cells [1, 7]	percent inhibition of Factor 7 mRNA, relative to untreated control cells [1, 8]	percent inhibition of Factor 7 mRNA, relative to untreated control cells [1, 9]	% Inhibition [2]	percent inhibition of Factor 7 mRNA, relative to untreated control cells ([3]; 3.125 nM)	percent inhibition of Factor 7 mRNA, relative to untreated control cells ([3]; 12.5 nM)	percent inhibition of Factor 7 mRNA, relative to untreated control cells ([3]; 25 nM)	percent inhibition of Factor 7 mRNA, relative to untreated control cells ([3]; 50 nM)	percent inhibition of Factor 7 mRNA, relative to untreated control cells ([3]; 100 nM)	percent inhibition of Factor 7 mRNA, relative to untreated control cells [3]	percent inhibition of Factor 7 mRNA, relative to untreated control cells [1, 10]	percent inhibition of Factor 7 mRNA, relative to untreated control cells [1, 11]	percent inhibition of Factor 7 mRNA, relative to untreated control cells [1, 12]	percent inhibition of Factor 7 mRNA, relative to untreated control cells [1, 13]	percent inhibition of Factor 7 mRNA, relative to untreated control cells [1, 14]	percent inhibition of Factor 7 mRNA, relative to untreated control cells [1, 15]	% Inhibition of human Factor 7 mRNA levels [2]	also measured
422228 (antisense eT*eG*d[5mC]*dA*dT*dG*dG*dT*dG*dA*dT*dG*d[5mC]*dT*dT*e[5mC]*eT*eG*eA*eA) [compound 422228]	18%	33%	40%	47%	71%	83%	73%	17%	43%	60%	78%	90%	25%	–	–	–	–	–	–	–	–
422229 (antisense eA*eT*dG*d[5mC]*dA*dT*dG*dG*dT*dG*dA*dT*dG*d[5mC]*dT*eT*e[5mC]*eT*eG*eA) [compound 422229]	21%	30%	33%	44%	65%	77%	71%	21%	53%	72%	86%	92%	32%	30%	45%	67%	79%	90%	92%	–	–
422252 (antisense e[5mC]*eG*d[5mC]*d[5mC]*dG*dG*d[5mC]*dT*d[5mC]*dT*dG*d[5mC]*dT*d[5mC]*dA*eT*e[5mC]*e[5mC]*e[5mC]*e[5mC]) [compound 422252]	23%	12%	26%	38%	58%	80%	–	18%	45%	61%	77%	87%	17%	–	–	–	–	–	–	–	% Inhibition (human Factor 7 mRNA levels) ([2]; oligonucleotides targeted to nucleobases 13760 to 13789 of SEQ ID NO: 1 (Table 10)): 70%
422292 (antisense eG*eT*dT*d[5mC]*dT*dG*d[5mC]*dA*dG*dG*dA*dG*d[5mC]*dG*dG*e[5mC]*e[5mC]*eT*eA*eA) [compound 422292]	36%	25%	47%	59%	75%	86%	–	13%	44%	63%	81%	83%	21%	31%	40%	68%	75%	82%	83%	75%	–
422295 (antisense e[5mC]*eG*dA*dG*dT*dT*d[5mC]*dT*dG*d[5mC]*dA*dG*dG*dA*dG*e[5mC]*eG*eG*e[5mC]*e[5mC]) [compound 422295]	10%	8%	37%	58%	68%	80%	–	17%	44%	64%	80%	85%	22%	–	–	–	–	–	–	74%	–
422296 (antisense e[5mC]*e[5mC]*dG*dA*dG*dT*dT*d[5mC]*dT*dG*d[5mC]*dA*dG*dG*dA*eG*e[5mC]*eG*eG*e[5mC]) [compound 422296]	62%	40%	56%	56%	82%	84%	–	21%	39%	67%	78%	82%	27%	47%	44%	70%	78%	80%	82%	74%	–
